Test results: US12662707B2, “MYC amplification drives resistance to pan-RAS inhibitors in pancreatic cancer” (The Trustees of Columbia University in the City of New York, priority 2024, dated 2026)

Tests used:
[1] = system: human DUSP6 expression in Capan-1 CDX tumors; assay: PK/PD in Capan-1 xenograft tumors (DUSP6 qRT-PCR); type: in vivo, mouse
Experimental: Tumor-bearing animals were randomized and assigned into groups (n=3-10/group). Vehicle or RMC-7977 was administered via oral gavage daily at 10 mg/kg and animals were treated for 21-28 days. Studies were terminated early if tumor burden reached humane endpoint. Body weights were collected twice a week during the study. Means±s.e.m were plotted in the waterfall plots. For the single-dose pharmacokinetic/pharmacodynamic (PK/PD) study, mice were randomized and assigned into groups (n=3-6/dose/timepoint). A single dose of RMC-7977 was administered orally at 10 mg/kg, 25 mg/kg and 50 mg/kg. […]
(§1) Whole blood, tumor, colon and skin tissue concentrations of RMC-7977 were determined using liquid chromatography-tandem mass spectrometry (LC-MS/MS) methods. […] After thorough mixing and centrifugation, the supernatant was directly analyzed on a Sciex 6500+ triple quadrupole mass spectrometer equipped with an ACQUITY or Shimadzu UPLC system. […] RMC-7977 and IS (verapamil or terfenadine) were detected by positive electrospray ionization using multiple reaction monitoring (RMC-7977: m/z 865.4/706.4 or m/z 865.3/833.5; verapamil: m/z 455.2/164.9; terfenadine: m/z 472.3/436.4). The lower limit of quantification was 0.5 ng/mL or 2.0 ng/mL for blood, tumor, and other tissue. […]

[2] = Pharmacokinetics in KPF/FC mice (tumor and blood); type: in vivo, mouse
Experimental: Tumor formation in KPF/FC (KrasLSL.G12D/+; p53flox/flox; Pdx1-Cre) mice was monitored by bi-weekly palpations until the detection of a mass, which was then confirmed by ultrasound. Tumor-bearing mice were randomized and assigned into groups (n=3/dose/timepoint). Single dose of RMC-7977 was administered orally at 10 mg/kg, 25 mg/kg and 50 mg/kg. The same vehicle formulation was used for the control group. Whole blood and tissue (tumors and colons) were harvested at indicated time points preserved as previously described (See Xenograft studies section).
as §1, with “methods. Tissue samples were homogenized with a 5× or 10× volume of homogenization buffer (methanol/15 mM PBS (1:2; v:v) or 15 mM PBS with 10% methanol).” for “methods.”

[3] = system: human PDAC organoids; assay: Organoid drug treatment and viability assay; type: cell-based; conditions: Matrigel-embedded human PDAC organoids; 6 days
Experimental: Organoids were cultured at 37° C. in 5% CO2. Cells were seeded in growth factor reduced Matrigel (Corning; Cat. #356231) domes and incubated with human organoid medium formulated as follows: Advanced DMEM/F12-based-conditioned medium, 1×B27 supplement, 10 mM HEPES, 2 mM GlutaMAX, 10 mM nicotinamide, 1.25 mM N-acetylcysteine, 50 ng/mL mEGF, 100 ng/mL hFGF10, […] hGastrin I, 500 nM A83-01, Noggin 100 ng/mL, 1×Wnt-3A conditioned 10% FBS DMEM (50% by volume) and 1×R-spondin Conditioned Basal Medium (10% by volume)^52,53
Organoids were dissociated using TrypLE Express (Thermo Fisher, Cat. #12604054) and cells were seeded into ultra-low attachment 384-well plates at 1×10^3 cells per well into […] of culture media, consisting of 10% Matrigel and 90% human organoid medium. […] Cell viability was assessed 6 days post-treatment using a Cell-TiterGlo 3D Cell Viability assay (Promega, G9683), according to the manufacturer's instructions. […] was read using a FLUOstar Omega microplate reader. Technical triplicates were analyzed for each biological replicate and a total of three biological replicates were done for each cell line. CTG assay readouts were plotted as a function of log molar [inhibitor] and a 4-parameter sigmoidal concentration response model was fitted to the data. […]

CCn1c(-c2cc(N3CCN(C4CC4)CC3)cnc2[C@H](C)OC)c2c3cc(ccc31)-c1csc(n1)C[C@H](NC(=O)[C@H]1[C@@H]3COC[C@@H]31)C(=O)N1CCC[C@H](N1)C(=O)OCC(C)(C)C2 [RMC-7977]
EC50 ([1]; Mus musculus, CAPAN-1, read-out: EC50, inhibition of DUSP6 expression vs RMC-7977 concentration in tumors): 142 nM
duration of DUSP6 inhibition post-dose ([1]; single dose 10, 25 or 50 mg/kg): 24 to 48 h
exposure in blood and PDAC tumors compared with CDX tumor-bearing BALB/c mice ([2]; KPF/FC mice): lower
half-life (t1/2) in KPF/FC tumors compared to CDX tumors ([2]; KPF/FC tumors): shorter half-life
potency in concentration-response cell viability assays [3]: low nanomolar potency
